Assay in all cases: growth of human tumour cells (NCI), 48 h
Assay [1] has as its system NCI-H522 lung.
The test system of assay [2] is U251 CNS.
Assay [3] concerns UO-31 renal.
For assay [4], the system named is OVCAR-5 ovarian.
The test system of assay [5] is CAKI-1 renal.
Assay [6] has as its system NCI-H460 lung.
The test system of assay [7] is EKVX NSCLC.
The subject of assay [8] is SK-MEL-28 melanoma.
Assay [9] relates to HCC-2998 colon.
The test system of assay [10] is NCI/ADR-RES ovarian.
Assay [11] deals with T-47D breast.
Assay [12] relates to SN12C renal.

The results in this text go back to PubChem BioAssay (NCI).

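Interpolation was linear, between the two tested concentrations surrounding the appropriate level; five concentrations were tested over 48 hours in 96-well plates. GI50 marks 50% less growth. The concentration for full growth arrest is given as TGI.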 Residues, ends and D or L forms follow the SMILES beside them. *: point of attachment. Boc = CC(C)(C)OC(=O)*; OBn = c1ccc(CO*)cc1 A value given as a limit tells only on which side of the number the result lay.

With `NCCCCC(=O)c1cccnc1`, the TGI in assay [1], in [2], in assay [3], in assay [4], in [5] and in assay [6] was above 100 µM each time. For the same compound, the TGI in [7] and in assay [8] was above 100 µM throughout.
Regarding `CCN(CC)c1ccc2cc(-c3nnc(-c4ccccc4O)o3)c(=O)oc2c1`, the TGI in [1] turned out to be 25.5 µM; in assay [2] it was 21 µM; in [3] it was 22.7 µM; in assay [4], 35 µM; in assay [9] it was 72.6 µM; in [10], 44.1 µM. Also, the TGI was 25.3 µM in [5], 27.9 µM in [6], 43.4 µM in assay [7] and 32.3 µM in assay [8].
On to `COc1cc([C@@]23OC[C@@H]4[C@@H](OC[C@@H]42)c2cc4c(cc23)OCO4)cc(OC)c1OC`, for which the TGI is below 0.01 µM in assay [1]; above 74.5 µM in [2]; above 100 µM in assay [3]; above 100 µM in [4]; 0.0241 µM in assay [9]; above 100 µM in assay [11]. Further, the TGI in [10] is below 0.01 µM; in [5] it was above 100 µM; in assay [8] it was above 100 µM.
Regarding `COC(=O)C1=CN(C2CCCCC2)C2(c3ccccc3)c3ccccc3C(=O)OC(=O)C12` (configuration not stated), the TGI in [1], in assay [2], in [3], in assay [4], in assay [12] and in [9] was above 100 µM each time. Besides, the TGI in assay [10], in assay [5], in [6], in assay [7] and in [8] was above 100 µM throughout.
`O=C1NC(N2CCCCC2)=N/C1=C\c1ccccc1O`: the TGI in [1], in assay [2], in assay [3], in assay [4], in assay [12] and in assay [11] was above 100 µM each time. For the same compound, the TGI in assay [10], in assay [5], in assay [7] and in [8] was above 100 µM in each case.
As to `O=C(CCCl)NNC1=NCCCCN1`, the TGI in assay [1], in assay [2], in assay [3], in assay [4], in assay [12] and in assay [9] was above 100 µM in each case. Further, the TGI in [11], in [10], in assay [6], in assay [7] and in assay [8] was above 100 µM each time.
In the case of `COC(=O)c1ccccc1/C=C1\Cc2c(C)cc(C)cc2C1=O`, the TGI in assay [1], in assay [2], in assay [3], in assay [12], in assay [9] and in [11] was above 100 µM throughout. The TGI in assay [5], in assay [6], in assay [7] and in assay [8] was above 100 µM each time.
Consider `O=C(CN1CCOCC1)c1ccc2c(c1)oc(=O)n2CCN1CCCC1`, for which the TGI in assay [2], in assay [4], in [12], in [10], in [5] and in [6] was above 100 µM throughout. Also, the TGI in assay [7] and in assay [8] was above 100 µM throughout.
Turning to `O=S(=O)(c1ccccc1)n1cc(C[P+](c2ccccc2)(c2ccccc2)c2ccccc2)c2ccccc21`, the TGI in [1] is 11.3 µM; in [2], 15.8 µM; in [3], 13.1 µM; in assay [4], 32.2 µM; in [12], 19.8 µM; in assay [9], 15.7 µM. The TGI came out at 26.9 µM in assay [5], 15.3 µM in assay [6], 15.8 µM in [7] and 14.2 µM in [8].
For `CO[C@@H]1C[C@H]2N3CC[C@@]2(c2cc4c(cc2C3)OCO4)[C@H]2O[C@@H]12`, the TGI in assay [1], in assay [2], in assay [3], in assay [4], in [12] and in assay [9] was above 100 µM throughout. The TGI in assay [10], in [5], in [6], in [7] and in assay [8] was above 100 µM each time.
Take `CC1(S)CC2C(CC1Sc1ccccc1)C2(C)C` (configuration not stated): the TGI in assay [2], in assay [3], in assay [4], in [12], in assay [9] and in assay [6] was above 100 µM in each case. Further, the TGI in assay [7] and in [8] was above 100 µM throughout.
Regarding `C[C@@H]1C2=CC[C@@]3(C)C(CCC3[C@H](C)[C@H]3C[C@@]4(C)O[C@@](c5cccnc5)(O3)OC4(C)C)[C@@H]2C2OC2[C@@]12CCC(=O)O2` (some centres not stated), the TGI was above 100 µM in assay [1]; above 100 µM in assay [2]; 97.1 µM in assay [3]; above 100 µM in [4]; above 100 µM in [12]; above 100 µM in assay [9]. Further, the TGI in assay [5] is 79.6 µM; in assay [6], above 100 µM; in [8] it was above 100 µM.
`CC(C)CC(NC(=O)OC(C)(C)C)C(=O)N1CCCC1C(=O)OCc1ccccc1` (stereo not drawn) (Boc-Leu-Pro-OBn; configuration not given here): the TGI in assay [1], in [2], in assay [3], in [4], in [12] and in assay [11] was above 100 µM each time. In addition, the TGI in assay [10], in assay [5], in assay [7] and in [8] was above 100 µM throughout.
Take `CC(C)(C)OC(=O)c1ccc(NCC2=CC(=O)C=CC2=O)cc1`: the TGI was determined as 3.1 µM in assay [1]; 27.1 µM in [2]; 19.7 µM in assay [3]; 32.5 µM in assay [4]; 23.8 µM in [12]; 36.6 µM in assay [9]. Besides, the TGI in assay [10] was 28.2 µM; in assay [5], 3.39 µM; in assay [6] it was above 59.5 µM; in assay [7], 28.8 µM; in [8], 29.2 µM.
Take `O=C1NC(=O)/C(=C/c2ccc(S(=O)(=O)N/N=C\C(O)C(O)C(O)C(O)CO)cc2)N1` (configuration not stated): the TGI in assay [2], in [3], in assay [4], in assay [12], in assay [9] and in assay [11] was above 100 µM each time. Besides, the TGI in [10], in assay [5], in assay [6], in assay [7] and in [8] was above 100 µM in each case.
Take `O=[N+]([O-])C(=C1Nc2ccccc2N1)/C(Cl)=C(/Cl)N1CCOCC1`: the TGI in [2] is above 100 µM; in assay [3] it was above 100 µM; in assay [4] it was above 100 µM; in assay [12], above 100 µM; in [9], above 100 µM; in assay [11] it was 51.2 µM. Moreover, the TGI in assay [10], in assay [5], in assay [6], in assay [7] and in assay [8] was above 100 µM each time.
As for `COc1cc(S(=O)(=O)Nc2ccc(-c3csc(N4C(=O)C(Cl)C4c4ccccc4)n3)cc2)ccc1Cl` (configuration not stated), the TGI in assay [1] was 33.9 µM; in assay [3], 63.1 µM; in assay [4] it was above 100 µM; in assay [12], 94 µM; in assay [11] it was 77.1 µM; in assay [10], above 100 µM. Moreover, the TGI in assay [5] was above 100 µM; in assay [6], above 100 µM; in assay [7] it was 94.4 µM; in [8], above 100 µM.
Take `Fc1cccc(Cl)c1C1SCc2nc3cc4ccccc4cc3n21` (configuration not stated): the TGI in assay [2], in [4], in [12], in [9], in assay [11] and in [10] was above 100 µM each time. Besides, the TGI in assay [5], in assay [7] and in [8] was above 100 µM in each case.
Consider `Cc1cc(=O)[nH]c(NNC(C#N)c2c(O)ccc3ccccc23)n1` (configuration not stated), for which the TGI amounted to 23.7 µM in assay [1]; 43.3 µM in assay [2]; 9.92 µM in [3]; 82.7 µM in assay [4]; 38.2 µM in assay [12]; 22 µM in assay [5]. For the same compound, the TGI in assay [6] was found to be 17.2 µM; in assay [8], 68.3 µM.
Turning to `N#Cc1c(O)cc(=O)n2c1[nH]c1ccccc12`, the TGI in [1], in assay [2], in [3], in assay [4], in assay [12] and in assay [9] was above 100 µM throughout. For the same compound, the TGI in [10], in [5], in assay [6] and in [7] was above 100 µM each time.
For `CCCCOCc1cc(CN2CCN(C)CC2)c(O)c2ncccc12`, the TGI in [1] is above 100 µM; in assay [2], 44.4 µM; in assay [3] it was 55.8 µM; in assay [4], 95.8 µM; in assay [12], above 100 µM; in assay [9], 90.2 µM. In addition, the TGI in assay [5], in assay [6], in [7] and in assay [8] was above 100 µM each time.
Take `N=C(N)c1ccc(-c2ccc(-c3cccs3)s2)s1`: the GI50 is 1.49 µM in assay [1]; 0.318 µM in [3]; 1.21 µM in assay [4]; 1.58 µM in assay [12]; 1.13 µM in [9]; 1.79 µM in [10]. Moreover, the GI50 in assay [5] is 1.57 µM. The TGI came out at 3.02 µM in assay [1]; 2.1 µM in assay [3]; 2.52 µM in assay [4]; 3.3 µM in assay [12]; 2.48 µM in assay [9]; 3.62 µM in assay [10]. Besides, the TGI in assay [5] is 2.95 µM; in assay [6], 0.229 µM.
Regarding `O=[N+]([O-])/C(C(Cl)=C(Cl)Cl)=C(\Nc1ccccc1)n1nnc2ccccc21`, the TGI in [2] was above 100 µM; in [3], 48.9 µM; in [4], above 100 µM; in [12], above 100 µM; in [9], above 100 µM; in assay [11], above 100 µM. Also, the TGI in assay [10], in assay [5], in assay [6], in assay [7] and in assay [8] was above 100 µM in each case.
For `[O-][N+]1=NC(c2ccccc2)=C1c1ccccc1`, the TGI in assay [1], in assay [2], in assay [3], in assay [4], in [12] and in [10] was above 50 µM each time. In addition, the TGI in [5], in assay [6], in [7] and in [8] was above 50 µM in each case.
Regarding `CN(C)C=NCCN1CCOCC1`, the TGI in [1], in assay [2], in assay [3], in [4], in [12] and in assay [11] was above 100 µM throughout. Also, the TGI in [10], in assay [7] and in assay [8] was above 100 µM in each case.
For the compound `COc1ccc(N=Nc2c(C)c(C#N)c(=S)n(C3OC(CO)C(O)C(O)C3O)c2C)cc1` (configuration not stated), the TGI in assay [2] was above 100 µM; in assay [3] it was above 100 µM; in assay [4], above 100 µM; in assay [11] it was 79.8 µM; in assay [10] it was above 100 µM; in assay [5] it was above 100 µM. Further, the TGI in assay [6] and in assay [8] was above 100 µM throughout.
Turning to `Cc1ccc(C(O)(c2ccc(C)cc2)c2ccccn2)cc1`, the TGI in [2], in assay [3], in assay [4], in assay [12], in [9] and in [5] was above 100 µM each time. The TGI in assay [6], in assay [7] and in assay [8] was above 100 µM throughout.
